PubChem BioAssay (NCI)
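Five concentrations, 48 hours, 96-well plates. TGI denotes the concentration required for complete inhibition of growth.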

What was measured:
Assay in all cases: NCI tumour cell line growth inhibition, 48 h
OVCAR-8 ovarian = tested on: OVCAR-8 ovarian
UACC-62 melanoma = tested on: UACC-62 melanoma
OVCAR-5 ovarian = tested on: OVCAR-5 ovarian
RXF 393 renal = tested on: RXF 393 renal
UO-31 renal = tested on: UO-31 renal
SF-268 CNS = tested on: SF-268 CNS
M14 melanoma = tested on: M14 melanoma
COLO 205 colon = tested on: COLO 205 colon
SK-MEL-2 melanoma = tested on: SK-MEL-2 melanoma
TK-10 renal = tested on: TK-10 renal
NCI-H226 lung = tested on: NCI-H226 lung
NCI/ADR-RES ovarian = tested on: NCI/ADR-RES ovarian
HCT-15 colon = tested on: HCT-15 colon
RPMI-8226 leukemia = tested on: RPMI-8226 leukemia
DU-145 prostate = tested on: DU-145 prostate
HT29 colon = tested on: HT29 colon
SNB-19 CNS = tested on: SNB-19 CNS
NCI-H23 lung = tested on: NCI-H23 lung
A498 renal = tested on: A498 renal
LOX IMVI melanoma = tested on: LOX IMVI melanoma
A549 NSCLC = tested on: A549 NSCLC
MDA-MB-435 = tested on: MDA-MB-435
OVCAR-4 ovarian = tested on: OVCAR-4 ovarian
IGROV1 ovarian = tested on: IGROV1 ovarian
HL-60(TB) leukemia = tested on: HL-60(TB) leukemia
SNB-75 CNS = tested on: SNB-75 CNS
SW-620 colon = tested on: SW-620 colon
SF-539 CNS = tested on: SF-539 CNS
HOP-62 NSCLC = tested on: HOP-62 NSCLC
T-47D breast = tested on: T-47D breast
U251 CNS = tested on: U251 CNS
SK-OV-3 ovarian = tested on: SK-OV-3 ovarian
CAKI-1 renal = tested on: CAKI-1 renal
HCT-116 colon = tested on: HCT-116 colon
MALME-3M melanoma = tested on: MALME-3M melanoma
MOLT-4 leukemia = tested on: MOLT-4 leukemia
CCRF-CEM leukemia = tested on: CCRF-CEM leukemia
KM12 colon = tested on: KM12 colon
HOP-92 NSCLC = tested on: HOP-92 NSCLC
ACHN renal = tested on: ACHN renal
BT-549 breast = tested on: BT-549 breast
NCI-H522 lung = tested on: NCI-H522 lung
MDA-MB-231 breast = tested on: MDA-MB-231 breast
SF-295 CNS = tested on: SF-295 CNS
K-562 leukemia = tested on: K-562 leukemia
HS 578T breast = tested on: HS 578T breast
OVCAR-3 ovarian = tested on: OVCAR-3 ovarian
PC-3 prostate = tested on: PC-3 prostate
MCF7 breast = tested on: MCF7 breast
SN12C renal = tested on: SN12C renal
MDA-N = tested on: MDA-N
786-0 renal = tested on: 786-0 renal
SK-MEL-28 melanoma = tested on: SK-MEL-28 melanoma
SK-MEL-5 melanoma = tested on: SK-MEL-5 melanoma
EKVX NSCLC = tested on: EKVX NSCLC
HCC-2998 colon = tested on: HCC-2998 colon
SR leukemia = tested on: SR leukemia
UACC-257 melanoma = tested on: UACC-257 melanoma
NCI-H460 lung = tested on: NCI-H460 lung

## NC1C2C=CC(C2)C1C(=O)O (stereo not drawn)
OVCAR-8 ovarian
  TGI: > 100 µM
UACC-62 melanoma
  TGI: > 100 µM
OVCAR-5 ovarian
  TGI: > 100 µM
RXF 393 renal
  TGI: > 100 µM
UO-31 renal
  TGI: > 100 µM
SF-268 CNS
  TGI: > 100 µM
M14 melanoma
  TGI: > 100 µM
COLO 205 colon
  TGI: > 100 µM
SK-MEL-2 melanoma
  TGI: > 100 µM
TK-10 renal
  TGI: > 100 µM
NCI-H226 lung
  TGI: > 100 µM
NCI/ADR-RES ovarian
  TGI: > 100 µM
HCT-15 colon
  TGI: > 100 µM
RPMI-8226 leukemia
  TGI: > 100 µM
DU-145 prostate
  TGI: > 100 µM
HT29 colon
  TGI: > 100 µM
SNB-19 CNS
  TGI: > 100 µM
NCI-H23 lung
  TGI: > 100 µM
A498 renal
  TGI: > 100 µM
LOX IMVI melanoma
  TGI: > 100 µM
A549 NSCLC
  TGI: > 100 µM
MDA-MB-435
  TGI: > 100 µM
OVCAR-4 ovarian
  TGI: > 100 µM
IGROV1 ovarian
  TGI: > 100 µM
HL-60(TB) leukemia
  TGI: > 100 µM
SNB-75 CNS
  TGI: > 100 µM
SW-620 colon
  TGI: > 100 µM
SF-539 CNS
  TGI: > 100 µM
HOP-62 NSCLC
  TGI: > 100 µM
T-47D breast
  TGI: > 100 µM
U251 CNS
  TGI: > 100 µM
SK-OV-3 ovarian
  TGI: > 100 µM
CAKI-1 renal
  TGI: > 100 µM
HCT-116 colon
  TGI: > 100 µM
MALME-3M melanoma
  TGI: > 100 µM
MOLT-4 leukemia
  TGI: > 100 µM
CCRF-CEM leukemia
  TGI: > 100 µM
KM12 colon
  TGI: > 100 µM
HOP-92 NSCLC
  TGI: > 100 µM
ACHN renal
  TGI: > 100 µM
BT-549 breast
  TGI: > 100 µM
NCI-H522 lung
  TGI: > 100 µM
MDA-MB-231 breast
  TGI: > 100 µM
SF-295 CNS
  TGI: > 100 µM
K-562 leukemia
  TGI: > 100 µM
HS 578T breast
  TGI: > 100 µM
OVCAR-3 ovarian
  TGI: > 100 µM
PC-3 prostate
  TGI: > 100 µM
MCF7 breast
  TGI: > 100 µM
SN12C renal
  TGI: > 100 µM
MDA-N
  TGI: > 100 µM
786-0 renal
  TGI: > 100 µM
SK-MEL-28 melanoma
  TGI: > 100 µM
SK-MEL-5 melanoma
  TGI: > 100 µM
EKVX NSCLC
  TGI: > 100 µM

## CCOC(=O)C12CCC(c3c(C)cccc3C)(O1)C(C(=O)OC)=C2C(=O)OC (stereo not drawn)
OVCAR-8 ovarian
  TGI: > 10 µM
UACC-62 melanoma
  TGI: > 10 µM
OVCAR-5 ovarian
  TGI: > 9.61 µM
RXF 393 renal
  TGI: > 10 µM
UO-31 renal
  TGI: > 10 µM
SF-268 CNS
  TGI: > 10 µM
M14 melanoma
  TGI: > 9.53 µM
COLO 205 colon
  TGI: 5.08 µM
SK-MEL-2 melanoma
  TGI: > 10 µM
TK-10 renal
  TGI: > 10 µM
NCI-H226 lung
  TGI: > 10 µM
NCI/ADR-RES ovarian
  TGI: > 10 µM
HCT-15 colon
  TGI: > 10 µM
RPMI-8226 leukemia
  TGI: > 10 µM
DU-145 prostate
  TGI: > 10 µM
HT29 colon
  TGI: 4.72 µM
SNB-19 CNS
  TGI: > 10 µM
NCI-H23 lung
  TGI: > 8.69 µM
A498 renal
  TGI: 7 µM
HCC-2998 colon
  TGI: > 10 µM
LOX IMVI melanoma
  TGI: > 7.87 µM
SR leukemia
  TGI: 6.06 µM
A549 NSCLC
  TGI: > 10 µM
MDA-MB-435
  TGI: 2.27 µM
OVCAR-4 ovarian
  TGI: > 10 µM
IGROV1 ovarian
  TGI: > 10 µM
HL-60(TB) leukemia
  TGI: > 7.4 µM
SNB-75 CNS
  TGI: 9.85 µM
SW-620 colon
  TGI: > 10 µM
SF-539 CNS
  TGI: 4.76 µM
HOP-62 NSCLC
  TGI: > 10 µM
T-47D breast
  TGI: > 10 µM
U251 CNS
  TGI: > 10 µM
SK-OV-3 ovarian
  TGI: > 10 µM
CAKI-1 renal
  TGI: > 10 µM
HCT-116 colon
  TGI: > 10 µM
MALME-3M melanoma
  TGI: 6.4 µM
MOLT-4 leukemia
  TGI: > 10 µM
CCRF-CEM leukemia
  TGI: > 10 µM
KM12 colon
  TGI: > 10 µM
HOP-92 NSCLC
  TGI: > 10 µM
ACHN renal
  TGI: > 10 µM
BT-549 breast
  TGI: > 10 µM
NCI-H522 lung
  TGI: > 10 µM
MDA-MB-231 breast
  TGI: 9.93 µM
SF-295 CNS
  TGI: > 10 µM
K-562 leukemia
  TGI: > 10 µM
HS 578T breast
  TGI: > 9.49 µM
OVCAR-3 ovarian
  TGI: 4.2 µM
UACC-257 melanoma
  TGI: 8.15 µM
NCI-H460 lung
  TGI: > 10 µM
PC-3 prostate
  TGI: > 10 µM
MCF7 breast
  TGI: > 10 µM
SN12C renal
  TGI: > 10 µM
MDA-N
  TGI: 1.98 µM
786-0 renal
  TGI: > 10 µM
SK-MEL-28 melanoma
  TGI: > 10 µM
SK-MEL-5 melanoma
  TGI: 5.37 µM
EKVX NSCLC
  TGI: > 10 µM

## CC(C)c1ccc(C(c2c(O)c3ccccc3oc2=O)c2c(O)c3ccccc3oc2=O)cc1
OVCAR-8 ovarian
  TGI: 42.5 µM
UACC-62 melanoma
  TGI: 31.2 µM
OVCAR-5 ovarian
  TGI: 37.4 µM
RXF 393 renal
  TGI: 48.1 µM
UO-31 renal
  TGI: 28.4 µM
SF-268 CNS
  TGI: 66.6 µM
M14 melanoma
  TGI: 38.4 µM
COLO 205 colon
  TGI: 34.2 µM
SK-MEL-2 melanoma
  TGI: 30.8 µM
TK-10 renal
  TGI: 68 µM
NCI-H226 lung
  TGI: 42.2 µM
NCI/ADR-RES ovarian
  TGI: 65.9 µM
HCT-15 colon
  TGI: 46.4 µM
RPMI-8226 leukemia
  TGI: 45.9 µM
DU-145 prostate
  TGI: > 81.8 µM
HT29 colon
  TGI: 40.2 µM
SNB-19 CNS
  TGI: 49.9 µM
NCI-H23 lung
  TGI: 51.6 µM
A498 renal
  TGI: 35.4 µM
HCC-2998 colon
  TGI: 35.2 µM
LOX IMVI melanoma
  TGI: 33 µM
SR leukemia
  TGI: 31.1 µM
A549 NSCLC
  TGI: 45.7 µM
MDA-MB-435
  TGI: 39.3 µM
OVCAR-4 ovarian
  TGI: 94 µM
IGROV1 ovarian
  TGI: > 62.6 µM
HL-60(TB) leukemia
  TGI: 26.3 µM
SNB-75 CNS
  TGI: 75.8 µM
SW-620 colon
  TGI: 34.2 µM
SF-539 CNS
  TGI: 39.4 µM
HOP-62 NSCLC
  TGI: 50.5 µM
T-47D breast
  TGI: > 100 µM
U251 CNS
  TGI: 30.1 µM
SK-OV-3 ovarian
  TGI: 65.8 µM
CAKI-1 renal
  TGI: 46.5 µM
HCT-116 colon
  TGI: 33.2 µM
MALME-3M melanoma
  TGI: 38.4 µM
MOLT-4 leukemia
  TGI: 21.9 µM
CCRF-CEM leukemia
  TGI: 36.2 µM
KM12 colon
  TGI: 40.4 µM
HOP-92 NSCLC
  TGI: 21.2 µM
ACHN renal
  TGI: 86.7 µM
BT-549 breast
  TGI: 39.9 µM
NCI-H522 lung
  TGI: 45.6 µM
MDA-MB-231 breast
  TGI: 45.6 µM
SF-295 CNS
  TGI: 52 µM
K-562 leukemia
  TGI: 51.4 µM
HS 578T breast
  TGI: 61.8 µM
OVCAR-3 ovarian
  TGI: 37.9 µM
UACC-257 melanoma
  TGI: 53 µM
NCI-H460 lung
  TGI: 37.6 µM
PC-3 prostate
  TGI: 37.9 µM
MCF7 breast
  TGI: 86 µM
SN12C renal
  TGI: 48.6 µM
MDA-N
  TGI: 46.8 µM
786-0 renal
  TGI: 40.9 µM
SK-MEL-28 melanoma
  TGI: 40 µM
SK-MEL-5 melanoma
  TGI: 31.3 µM
EKVX NSCLC
  TGI: 55.2 µM
